From ChEMBL document CHEMBL1201862, “PubChem BioAssay data set” (2004)
Active and inactive are the calls of the source.

What was measured:
[1] = biological target: Luciferin 4-monooxygenase (Photinus pyralis, UniProt P08659); test: firefly luciferase enzyme inhibitors, dose response, biochemical, luminescence (AID 1891)
[2] = Luminescence Cell-Based Dose Confirmation HTS to Identify Inhibitors of Platelet Dense Granule Release. [Related pubchem assays: 1663 (Primary HTS), 1678 (Summary of Project)]; assay type: functional
[3] = biological target: SWI/SNF-related matrix-associated actin-dependent regulator of chromatin subfamily A member 2 (Homo sapiens, UniProt P51531); test: Luminescence-based cell-based high throughput dose response assay to identify activators of the function of SWI/SNF related, matrix associated, actin dependent regulator of chromatin, subfamily a, member 2 (SMARCA2, BRM).; assay type: functional
SWI/SNF-related matrix-associated actin-dependent regulator of chromatin subfamily A member 2, sequence (P51531 whole entry): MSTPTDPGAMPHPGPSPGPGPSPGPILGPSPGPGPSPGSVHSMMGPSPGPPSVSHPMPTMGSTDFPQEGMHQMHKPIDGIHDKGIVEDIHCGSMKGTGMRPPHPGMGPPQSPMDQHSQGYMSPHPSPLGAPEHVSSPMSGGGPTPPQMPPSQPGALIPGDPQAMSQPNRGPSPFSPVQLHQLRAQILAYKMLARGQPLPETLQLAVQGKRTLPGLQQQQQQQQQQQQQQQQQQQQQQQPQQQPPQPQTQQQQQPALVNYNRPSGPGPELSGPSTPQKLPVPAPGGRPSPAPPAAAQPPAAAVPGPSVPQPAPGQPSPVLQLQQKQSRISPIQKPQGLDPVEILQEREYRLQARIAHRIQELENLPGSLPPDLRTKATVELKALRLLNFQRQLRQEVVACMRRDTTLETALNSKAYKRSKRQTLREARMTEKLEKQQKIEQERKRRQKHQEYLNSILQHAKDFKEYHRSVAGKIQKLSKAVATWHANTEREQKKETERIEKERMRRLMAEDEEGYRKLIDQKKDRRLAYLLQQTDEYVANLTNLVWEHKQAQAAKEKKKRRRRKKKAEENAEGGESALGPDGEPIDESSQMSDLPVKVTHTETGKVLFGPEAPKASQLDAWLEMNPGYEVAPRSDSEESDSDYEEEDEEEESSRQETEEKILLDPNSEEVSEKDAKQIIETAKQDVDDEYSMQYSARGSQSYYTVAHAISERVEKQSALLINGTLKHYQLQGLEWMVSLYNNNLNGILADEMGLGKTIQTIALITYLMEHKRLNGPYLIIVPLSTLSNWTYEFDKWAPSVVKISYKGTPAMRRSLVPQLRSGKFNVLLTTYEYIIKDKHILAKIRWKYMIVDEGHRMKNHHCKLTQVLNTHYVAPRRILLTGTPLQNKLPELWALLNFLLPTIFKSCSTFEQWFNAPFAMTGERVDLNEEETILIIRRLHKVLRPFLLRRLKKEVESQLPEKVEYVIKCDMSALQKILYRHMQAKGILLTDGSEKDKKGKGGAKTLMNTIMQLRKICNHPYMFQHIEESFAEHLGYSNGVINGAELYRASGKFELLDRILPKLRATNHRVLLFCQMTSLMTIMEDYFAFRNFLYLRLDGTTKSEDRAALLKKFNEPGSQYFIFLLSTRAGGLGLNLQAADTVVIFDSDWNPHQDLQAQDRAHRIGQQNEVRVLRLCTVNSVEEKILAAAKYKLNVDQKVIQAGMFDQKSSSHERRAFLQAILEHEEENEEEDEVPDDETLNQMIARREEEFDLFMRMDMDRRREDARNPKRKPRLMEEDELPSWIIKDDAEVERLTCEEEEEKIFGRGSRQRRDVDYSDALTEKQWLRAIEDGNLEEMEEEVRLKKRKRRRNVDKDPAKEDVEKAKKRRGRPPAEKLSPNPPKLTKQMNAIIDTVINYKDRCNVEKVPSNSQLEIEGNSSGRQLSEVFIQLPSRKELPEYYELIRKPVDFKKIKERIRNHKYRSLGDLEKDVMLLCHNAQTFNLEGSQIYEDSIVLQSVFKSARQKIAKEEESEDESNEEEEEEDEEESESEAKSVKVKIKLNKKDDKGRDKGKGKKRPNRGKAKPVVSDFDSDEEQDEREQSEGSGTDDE

[4] = Counterscreen for activators of the function of SWI/SNF related, matrix associated, actin dependent regulator of chromatin, subfamily a, member 2 (SMARCA2, BRM): Luminescence-based cell-based high throughput dose response assay to identify non-selective compounds using the VP16 reporter assay.; assay type: functional
HEK293 [5] = test: NOD1 signaling inhibitors, primary screen, cell-based, luminescence, uHTS (AID 1578); assay type: functional; details: Homo sapiens
HEK293 [6] = test: cells; assay type: functional, cell-based; details: Homo sapiens
HEK293 [7] = test: cells; assay type: functional, cell-based; details: Homo sapiens; remark: listed apart in the source
HEK293 [8] = test: NOD2 signaling inhibitors in MDP-stimulated cells, cell-based, uHTS, luminescence (AID 2001); assay type: functional; details: Homo sapiens
[9] = biological target: T1, Corticotropin-releasing factor receptor 2/Corticotropin-releasing factor-binding protein (Homo sapiens, UniProt P24387+Q13324); test: activators of CRF receptor 2 with binding protein – uHTS hits, confirmation (AID 602473); assay type: functional; details: read-out: EC50_Mean
T1 sequence (Q13324 whole entry): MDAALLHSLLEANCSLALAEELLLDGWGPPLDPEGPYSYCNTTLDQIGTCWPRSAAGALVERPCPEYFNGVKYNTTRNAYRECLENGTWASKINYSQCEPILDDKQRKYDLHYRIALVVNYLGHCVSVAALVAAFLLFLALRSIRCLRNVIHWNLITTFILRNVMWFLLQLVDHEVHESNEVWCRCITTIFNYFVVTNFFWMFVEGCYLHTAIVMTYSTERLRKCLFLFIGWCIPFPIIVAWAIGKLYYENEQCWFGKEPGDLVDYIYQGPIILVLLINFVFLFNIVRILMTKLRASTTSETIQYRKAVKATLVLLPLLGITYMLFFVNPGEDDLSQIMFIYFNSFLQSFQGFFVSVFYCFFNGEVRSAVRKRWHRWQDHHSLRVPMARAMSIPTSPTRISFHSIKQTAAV
T1 sequence (P24387 whole entry): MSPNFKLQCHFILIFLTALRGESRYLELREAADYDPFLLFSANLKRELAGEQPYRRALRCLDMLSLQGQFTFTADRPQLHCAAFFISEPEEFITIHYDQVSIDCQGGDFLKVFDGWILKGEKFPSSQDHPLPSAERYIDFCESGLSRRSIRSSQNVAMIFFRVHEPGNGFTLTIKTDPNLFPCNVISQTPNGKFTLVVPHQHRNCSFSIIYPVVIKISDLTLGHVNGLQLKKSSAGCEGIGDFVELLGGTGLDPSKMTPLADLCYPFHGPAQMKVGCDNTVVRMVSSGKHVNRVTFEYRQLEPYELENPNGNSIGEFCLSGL

[10] = inhibitors of HIV Env-driven cell fusion, dose response, cherry-pick (AID 652057); assay type: functional, cell-based
[11] = ZM109 Env clade C HIV-1 fusion inhibitors, dose response, HeLa effector, CEM target cells, luciferase, cherry-pick (AID 652058); assay type: functional, cell-based
[12] = off-target signal loss in HeLa-CEM21 co-culture – HeLa F-luc CTL cells, cherry-picked, counter-screen for HIV-1 Env fusion inhibitor project, dose response (AID 652040); assay type: functional, cell-based;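 note: potency for signal decrease marking cytotoxic or nonspecific inhibition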
[13] = inhibitors of clade B AD8 Env fusion, dose response, cell-based, cherry-pick (AID 652062); assay type: functional;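 note: luciferase signal from cell-cell fusion driven by HIV-1 clade B AD8 Env; potency is for inhibitors of fusion seen as a drop in luminescence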
HeLa = test: HeLa cell cytotoxicity, dose response, cytotoxicity control for MITF activator project, CellTiter-Glo luminescence, cherry-pick samples (AID 540259); assay type: functional, cell-based; details: Homo sapiens
[14] = Luminescence Cell-Based Dose Response HTS to Identify Activators of Luciferase Translation or Activity in H4 […] Cells. [Related pubchem assays: 1829 (Project Summary), 1814 (Primary HTS)]; assay type: functional
[15] = test system: Streptococcus sp. 'group A'; test: growth inhibition of control SK(-) GAS strain, dose response, counter-screen for streptokinase expression inhibitor project, luminescence, kanamycin, BacTiterGlo, confirmation (AID 1900); assay type: functional, organism-based
H4 = test: Luminescence Cell-Based Dose Response HTS to Identify Activators of 5'UTR Stem-Loop Driven Prion Protein mRNA Translation in H4 Neuroglioblastoma Cells. [Related pubchem assays: 1829 (Project Summary), 1814 (Primary HTS)]; assay type: functional; details: Homo sapiens
Streptococcus = test: Group A Streptococcus viability loss, dose response, counter-screen for streptokinase expression inhibitor project, luminescence, BacTiterGlo (AID 1915); assay type: functional, organism-based;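 note: potency for reduction of bacterial viability or growth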
cells = assay type: functional
HEK293 [16] = test: inhibitors of LMP1-driven NF-kB reporter, dose response, cell-based, HEK293, luciferase, cherry-pick (AID 588343); assay type: functional; details: Homo sapiens
[17] = inhibitors of intracellular T. cruzi replication, confirmation, NIH3T3 host cells, beta-gal luminescence (AID 2044); assay type: functional, cell-based;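 note: intracellular parasites grown in NIH/3T3 mouse fibroblasts as host cells; luminescent beta-galactosidase reporter signal from transgenic T. cruzi replicating inside host cells; inhibitors lower the luminescence signal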
[18] = cytotoxicity toward NIH3T3 fibroblasts, dose response, counter-screen, cell-based, ATP luminescence, mouse fibroblasts (AID 2010); assay type: functional;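 note: cells exposed to compound for about 90 hours before reading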

Luciferin 4-monooxygenase, sequence (P08659 whole entry): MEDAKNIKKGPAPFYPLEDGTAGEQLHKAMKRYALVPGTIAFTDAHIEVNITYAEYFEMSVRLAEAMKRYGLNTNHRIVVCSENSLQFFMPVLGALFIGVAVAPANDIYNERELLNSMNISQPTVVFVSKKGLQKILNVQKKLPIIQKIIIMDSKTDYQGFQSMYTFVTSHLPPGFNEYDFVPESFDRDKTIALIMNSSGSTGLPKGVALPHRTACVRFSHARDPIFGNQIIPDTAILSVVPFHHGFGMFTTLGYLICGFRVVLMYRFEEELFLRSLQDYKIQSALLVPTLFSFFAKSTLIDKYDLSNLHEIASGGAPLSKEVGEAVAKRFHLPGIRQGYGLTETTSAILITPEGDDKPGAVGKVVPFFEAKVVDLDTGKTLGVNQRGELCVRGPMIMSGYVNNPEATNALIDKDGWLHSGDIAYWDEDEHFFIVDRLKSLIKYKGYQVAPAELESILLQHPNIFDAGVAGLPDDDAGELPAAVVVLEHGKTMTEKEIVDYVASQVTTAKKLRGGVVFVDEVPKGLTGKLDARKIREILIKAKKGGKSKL

Structure (SMILES): CCN(CC)c1ccc(Nc2cc3n(c(=O)n2)CCc2cc(OC)c(OC)cc2-3)cc1
- EC50 [1]: > 112 µM (not active)
- EC50 [2]: > 112 µM (not active)
- EC50 [3]: > 91.2 µM (inactive)
- EC50 [4]: > 91.2 µM (inactive)

Structure (SMILES): COC(=O)c1ccc2c(O)nc(CCl)nc2c1
- EC50 (HEK293 [5]): > 20 µM (inactive)
- IC50 (HEK293 [6]): > 20 µM (inactive)
- IC50 (HEK293 [7]): > 20 µM (inactive)
- IC50 (HEK293 [8]): > 20 µM (inactive)

Structure (SMILES): CC1=CC(C)(C)N(C(=O)c2ccccc2)c2ccc(C)cc21
- EC50 [9]: 6.89 µM (active)
- AC50 [10]: 42.6 µM (active)
- AC50 [11]: 7.28 µM (active)
- AC50 [12]: 29.7 µM (active)
- AC50 [13]: 42.2 µM (active)

Structure (SMILES): COc1cccc(C(=O)Nc2nnc(-c3ccccc3)s2)c1
- AC50 (HeLa): 44.4 µM (active)

Structure (SMILES): Cc1cccc(OC(=O)c2sc3ncn(C)c(=O)c3c2C)c1
- EC50 [14]: > 120 µM (not active)
- EC50 [15]: 2.85 µM (active)
- EC50 (H4): 19.8 µM (active)
- EC50 (Streptococcus): 7.36 µM (active)
- IC50 (cells): 2.87 µM (active)
- AC50 (HeLa): > 350 µM (inactive)

Structure (SMILES): O=C(NC1CCCC1)c1cc(-c2ccc(Cl)cc2Cl)on1
- AC50 (HeLa): > 350 µM (inactive)

Structure (SMILES): C=CCn1c(SCc2csc(C)n2)nc2sc3c(c2c1=O)CCCC3
- AC50 (HEK293 [16]): 35.8 µM (active)

Structure (SMILES): CCS(=O)(=O)c1ccc2oc(Nc3ccccc3C)nc2c1
- AC50 (HeLa): 78.7 µM (active)

Structure (SMILES): Cc1ccc(S(=O)(=O)N2c3ccccc3-c3c(ssc3=S)C2(C)C)cc1
- EC50 [17]: 2.65 µM (active)
- EC50 [18]: > 60 µM (not active)
- AC50 (HEK293 [16]): 43.5 µM (active)
